According to US5583144A, “Methods for treating erectile impotence” (priority 1995, dated 1996):
“Also recorded” adds a separate entry of the source.

What was measured:
[1] = cited from earlier work
[2] = in water and acid solutions; cited from earlier work
[3] = system: alpha-adrenergic receptor; assay: Inhibition of epinephrine-induced pressor response (arterial blood pressure) in pentobarbital anesthetized rats; type: in vivo, Sprague-Dawley rats; settings: for duration of action relative to that of phentolamine: 0.25 mg/kg iv each, four rats per treatment, alpha-adrenergic antagonism / duration of vasodilation (FIG. 1); for estimated pharmacologic half-life on alpha-adrenergic receptor antagonism: epinephrine 1.0 ug/kg iv challenge, pentobarbital anesthetized rats; for alpha-adrenergic antagonism in vivo: inhibition of the pressor effect of epinephrine challenge
Description: (§1) Eight male normotensive Sprague-Dawley rats weighing between 350 to 380 grams were used in these studies. Animals were fed and watered ad libitum in a temperature (22 degrees and humidity (50%) controlled vivarium with a light dark cycle of 12 hours.
Epinephrine, D,L-piperoxan, and phentolamine (Sigma Chemical Company; St. Louis, Mo.) were solubilized in 0.9% saline on the day of the experiment. All doses were calculated on free base weight. The rats were anesthetized with pentobarbital sodium 60 mg/kg i.p. All animals were checked for depth of anesthesia before proceeding further using the corneal reflex and toe pinch response as indicators. The ventral surface of the neck was shaven and a longitudinal incision, approximately 2 cm long, was made on the ventral surface. The trachea was isolated and intubated (PE205; Intramedic, Parsippany, N.J.) . The left internal jugular vein and right common carotid artery were cannulated (PE50; Clay Adams, Becton Dickinson, Parsippany, N.J.). The cannulas were heparinized (Sodium heparin 60 units/ml) and inserted approximately 1.5 cm into the vessels and were secured with 4-0 silk suture. The animal was placed in the supine position, and body temperature was maintained via a heat lamp. A short piece of hypodermic tubing was inserted into the venous and arterial cannulas, and each cannula connected to a three way stopcock via a section of PE50 and 23 gauge Luer stub. The jugular line was used for administration of epinephrine and either piperoxan or phentolamine. In order to directly record arterial blood pressure, the carotid arterial line was connected to an electronic blood pressure transducer (P23db; Gould Electronics, Oxnard, Calif.). The blood pressure transducer was connected to a Gould transducer amplifier and a thermal recorder for the purpose of recording the arterial blood pressure waveform. After a stable blood pressure baseline was obtained, epinephrine was injected intravenously at a dose of 1.0 ug/kg for the purpose of inducing an alpha-adrenergic receptor mediated pressor response. This response was quantified by measurement of the arterial blood pressure waveform. After the epinephrine-induced pressor effect returned to baseline, either phentolamine or piperoxan was administered intravenously at a dose of 0.25 mg/kg. After dosing with piperoxan and phentolamine, epinephrine injections were repeated at 5, 10, 15, 20, 30, 40, 50, and 60 minutes post dosing. Arterial blood pressure was measured continuously during the length of the experiments.
Percent inhibition of the epinephrine-induced pressor effect by both phentolamine and piperoxan was used as a measure of inhibition of the alpha-adrenergic receptor. As stated previously, inhibition of the alpha receptor results in vasodilatation. Percent inhibition was calculated by the following formula: [formula]

[4] = system: vascular alpha-adrenergic receptors; settings: epinephrine 1.0 ug/kg iv; all rats tested
Description: as §1
Epinephrine, D,L-piperoxan, and phentolamine (Sigma Chemical Company; St. Louis, Mo.) were solubilized in 0.9% saline on the day of the experiment. All doses were calculated on free base weight. The rats were anesthetized with pentobarbital sodium 60 mg/kg i.p. All animals were checked for depth of anesthesia before proceeding further using the corneal reflex and toe pinch response as indicators. The ventral surface of the neck was shaven and a longitudinal incision, approximately 2 cm long, was made on the ventral surface. The trachea was isolated and intubated (PE205; Intramedic, Parsippany, N.J.) . The left internal jugular vein and right common carotid artery were cannulated (PE50; Clay Adams, Becton Dickinson, Parsippany, N.J.). […] This response was quantified by measurement of the arterial blood pressure waveform. […] Arterial blood pressure was measured continuously during the length of the experiments.
Percent inhibition of the epinephrine-induced pressor effect by both phentolamine and piperoxan was used as a measure of inhibition of the alpha-adrenergic receptor. […] Percent inhibition was calculated by the following formula: [formula]

[5] = system: erectile dysfunction; settings: cited from earlier work; for priapism or extremely long erections following treatment for erectile dysfunction: men treated for erectile dysfunction, literature; for duration of action / erections: agents used to treat impotence, causing pain and general discomfort

In the case of `c1ccc2c(c1)OCC(CN1CCCCC1)O2` (racemic) [piperoxan], the “storage stability of aqueous solution” value ([1]; aqueous solution at pH 5.0, room temperature) is given as “many months of storage at room temperature”, the “stability of aqueous solution to autoclaving” value ([1]; aqueous solution at pH 5.0) is given as “stable to autoclaving” and the hygroscopicity of crystals ([1]; crystals) is given as “not hygroscopic”. The stability of crystals ([1]; crystals, light, air, normal storage temperatures) was “stable to light, air, and normal storage temperatures”, the solubility [2] was “freely soluble” and the “duration of action relative to that of phentolamine” value [3] was “approximately one-half”. The “duration of action relative to that of phentolamine” value ([3]; listed as Piperoxan) was “approximately half”, the “biological half-life / duration of action compared with phentolamine” value ([3]; 0.25 mg/kg iv, FIG. 1) was “much shorter biological half-life; also recorded: shorter duration of action than phentolamine” and the “estimated pharmacologic half-life on alpha-adrenergic receptor antagonism” value ([3]; 0.25 mg/kg iv) was “approximately 30 minutes”. For the same compound, the “alpha-adrenergic antagonism in vivo” value ([3]; 0.25 mg/kg iv) was “inhibitory to the pressor-induced effect of epinephrine challenge; also recorded: alpha-adrenergic antagonist in vivo”.

With `CNC[C@H](O)c1ccc(O)c(O)c1` [epinephrine] the “arterial blood pressure change” value [4] was “marked increase in arterial blood pressure in all rats tested”.

For `COc1ccc(Cc2nccc3cc(OC)c(OC)cc23)cc1OC` [papaverine], the “priapism or extremely long erections following treatment for erectile dysfunction” value [5] is listed as “priapism or extremely long erections”.

In the case of `CC(COc1ccccc1)N(CCCl)Cc1ccccc1` (stereo not shown) [phenoxybenzamine], the “priapism or extremely long erections following treatment for erectile dysfunction” value [5] is given as “priapism or extremely long erections”.

For `Cc1ccc(N(CC2=NCCN2)c2cccc(O)c2)cc1` [phentolamine], the “duration of action / erections” value [5] is listed as “extremely long duration of action, resulting in erections which last several hours”, the “priapism or extremely long erections following treatment for erectile dysfunction” value [5] is listed as “priapism or extremely long erections” and the “estimated pharmacologic half-life on alpha-adrenergic receptor antagonism” value ([3]; 0.25 mg/kg iv) is listed as “greater than 60 minutes”. For the same compound, the “alpha-adrenergic antagonism in vivo” value ([3]; 0.25 mg/kg iv) was “inhibitory to the pressor-induced effect of epinephrine challenge”.

For `O=c1n(CCCN2CCN(c3cccc(Cl)c3)CC2)nc2ccccn12` [trazodone], the “priapism or extremely long erections following treatment for erectile dysfunction” value [5] is listed as “priapism or extremely long erections”.

In the case of `COC(=O)[C@@H]1[C@H]2C[C@H]3c4[nH]c5ccccc5c4CCN3C[C@@H]2CC[C@@H]1O` [yohimbine], the “duration of action / erections” value [5] is given as “extremely long duration of action, resulting in erections which last several hours”.
